We go through 30 compounds from patent US20170216252A1, “ANTI-BACTERIAL PYRUVATE KINASE MODULATOR COMPOUNDS, COMPOSITIONS, USES AND METHODS” (SIMON FRASER UNIVERSITY, priority 2014, published 2017).

Each structure is given as a SMILES string. pIC50: −log10 of the molar value. In brackets after ≈: the same amount, converted by molar mass. Bounds are passed on as bounds.

T1 sequence (Q6GG09 whole entry): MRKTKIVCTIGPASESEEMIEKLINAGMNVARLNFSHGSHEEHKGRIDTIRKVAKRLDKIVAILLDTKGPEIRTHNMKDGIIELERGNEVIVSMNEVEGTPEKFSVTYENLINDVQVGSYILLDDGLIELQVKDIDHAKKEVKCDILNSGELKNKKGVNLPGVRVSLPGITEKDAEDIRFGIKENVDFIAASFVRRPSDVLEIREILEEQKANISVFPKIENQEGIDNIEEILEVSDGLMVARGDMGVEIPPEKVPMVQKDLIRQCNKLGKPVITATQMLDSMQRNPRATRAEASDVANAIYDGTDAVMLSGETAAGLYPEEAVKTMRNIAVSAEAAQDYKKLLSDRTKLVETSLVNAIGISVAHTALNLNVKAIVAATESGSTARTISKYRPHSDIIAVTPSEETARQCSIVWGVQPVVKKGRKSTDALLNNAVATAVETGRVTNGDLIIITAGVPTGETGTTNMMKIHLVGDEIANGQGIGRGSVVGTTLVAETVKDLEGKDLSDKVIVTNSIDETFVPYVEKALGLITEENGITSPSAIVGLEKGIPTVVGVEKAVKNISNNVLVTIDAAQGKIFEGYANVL

For one assay, the system named is S. aureus ATCC 29213. Kind of assay: In vitro susceptibility, broth microdilution MIC. It is filed as cell-based, Staphylococcus aureus. The following applies: Staphylococcus aureus, ATCC29213, Table 8; tested at least in duplicate, differing values all given; read-out: MIC. As for the experimental part:
The antimicrobial activities of PK inhibitor candidates were determined using the 96-well microtiter standard 2-fold serial broth microdilution method as described by CLSI (formerly NCCLS) with the various gram-positive and gram-negative bacteria species mentioned above. Bacteria from a single colony were grown, overnight in either BHI Broth (VRE), mueller hinton broth (S. aureus 29213; MRSA USA400) or L-broth (E. coli, P. aeruginosa, S. typhimuriu, K. Pneumonia and A. baumannii). […] Culture plates were incubated for 18-24 h at 37° C., and optical density at 600 nm (OD600) was measured using a Benchmark Plus™ microplate spectrophotometer (Bio-Rad™). The absorbance control values for the series containing CAMHB and inhibitor were subtracted as background from the corresponding infected wells. The MIC was defined as the lowest concentration of test compound leading to complete inhibition of cell growth in relationship to compound-free control wells as determined by optical density. […] All assays were run in triplicate (Tables 1-6) or duplicate. Experiments were replicated at least twice to verify reproducibility using the above conditions.
Background: Broth dilution looks for growth in wells or tubes with falling amounts of substance.
For the compound `Brc1ccc2cc(CCc3cn4c(n3)CCCC4)[nH]c2c1` [Compound 126, 2-(2-(6-Bromo-1H-indol-2-yl)ethyl)-5,6,7,8-tetrahydroimidazo[1,2-a]pyridine], the MIC (as a rule, the lowest concentration found to suppress growth) was 64 µg/mL (≈ 186 µM). As for `Clc1cnc(C#Cc2cc3ccc(Br)cc3[nH]2)nc1` [Compound 142, 6-Bromo-2-((5-chloropyrimidin-2-yl)ethynyl)-1H-indole], the MIC was more than 64 µg/mL. With `Brc1ccc2cc(/C=C/c3ccc(-n4ccnc4)cc3)[nH]c2c1` [Compound 104, (E)-2-(4-(1H-Imidazol-1-yl)styryl)-6-bromo-1H-indole], the MIC was more than 64 µg/mL.

Another assay concerns the target T1, MRSA PK (Staphylococcus aureus, UniProt Q6GG09).
T1 construct: His tag (pET-28a(+) vector) (N); made in house; host or cells: E. coli BL-21 (DE3)
Kind of assay: MRSA PK activity, continuous LDH-coupled assay. The format is biochemical, S. aureus (MRSA strain Sanger 252).
Conditions: not given
The source says:
Genomic DNA of MRSA strain Sanger 252 extracted using DNeasy Tissue Kit™ (Qiagen™) was used as a template to generate the His-tagged MRSA PK. Human cDNA from MCF-7 breast cancer cell line (courtesy of Dr. J Wong, BC Cancer Research Center (Vancouver, Canada) was used as a template to generate the full-length human M2 PK enzyme. The following primer sets were used creating appropriate restriction sites (NdeI and XhoI sites underlined): For cloning of MRSA PK: M27F 5′-[…]-3′ and M27R 5′-[…]-3′, for cloning of human M2 PK isoform: hM2F 5′-[…]-3′ and hM2R 5′-[…]-3′. The resulting PCR fragments for each construct were cloned into the NdeI and XhoI unique sites of the bacterial expression vector pET-28a (+) (Novagen™). […] The sequence and the correct reading frame of all constructs were verified by sequencing. Human M1, R and L PK constructs in pET-28-a(+) vectors (courtesy of Dr. L. Cantley, Harvard Medical, School (Boston, USA)) were used to generate relevant recombinant His-tagged human PK isoforms.
MRSA and human constructs in pET-28a(+) were used to express relevant recombinant PK proteins in E. coli BL-21 (DE3). The proteins were expressed and purified using Ni-NTA agarose (Qiagen™) according to the manufacturer's protocol. Briefly, cells were grown to an absorbance of 0.4-0.5 at 600 nm in 2×YT medium, then induced with 0.1 mM IPTG for 3 h at 20° C. Cells were lysed by sonication on ice (3×10-s bursts with a 30-s recovery between bursts) in lysis buffer (0.2 mg/ml lysozyme, 50 mM Tris pH 7.5, 10 mM MgCl2, 200 mM NaCl, 100 mM KCl, 10% glycerol, 10 mM imidazole, 0.5% NP-40 and 1 mM DTT containing Complete™ protease inhibitor). Cell lysates were cleared by centrifugation (18,000×g in a Beckman™ JA-20 rotor) for 20 min at 4° C. and PK isoforms were purified by batch binding to Ni-NTA resin. The resins were then packed in columns (1×2 cm) and washed with 400 column volumes lysis buffer containing 30 mM imidazole. His-tagged PK isoforms were eluted with the same buffer containing 300 mM imidazole. The proteins were dialyzed overnight at 4° C. against 2000 volumes of ice-cold 30 mM Tris pH 7.5, 25 mM KCl, 5 mM MgCl2, 10% glycerol and 1 mM DTT to remove imidazole. All purification steps were done at 4° C.; enzymes were flash-frozen and stored at −70° C. […] Purity and physical integrity of proteins were assessed using SDS-polyacrylamide gel electrophoresis (SDS-PAGE) followed by coomassie blue staining. Protein concentration was estimated by Bradford assay (Bio-Rad Protein Assay™) using bovine serum albumin as a standard.
Candidate MRSA PK inhibitors were assayed for their ability to inhibit enzymatic activities of MRSA and human PKs. PK activity was determined using a continuous assay coupled to lactate dehydrogenase (LDH) in which the change in absorbance at 340 nm owing to oxidation of NADH was measured using a Benchmark Plus™ microplate spectrophotometer (Bio-Rad Laboratories, Hercules, Calif.). […] Reactions were initiated by the addition of 15 nM of one of the PK enzymes. PK activity proportional to the rate of change at 340 nm was expressed as specific activity (μmol/min/mg), which is defined as the amount of PK that catalyzes the formation of one micromole of either product per minute. Inhibitors were dissolved in DMSO with the final concentration of the solvent never exceeding 1% of the assay volume. IC50 values were calculated by curve fitting on a four-parameter dose-response model with variable slope using Graphpad Prism 5.0™ (GraphPad™ Software Inc., La Jolla, Calif.). […] Reactions were performed at 30° C. for up to 5 min. All values determined represent at least two measurements, in triplicate (Tables 1-6) or duplicate unless mentioned otherwise.
As for `Brc1ccc2cc(CCc3cn4c(n3)CCCC4)[nH]c2c1` [Compound 126, 2-(2-(6-Bromo-1H-indol-2-yl)ethyl)-5,6,7,8-tetrahydroimidazo[1,2-a]pyridine], the pIC50 – broadly, the negative decadic logarithm of the IC50, by convention in mol/L – was less than 4.00. Consider `Clc1cnc(C#Cc2cc3ccc(Br)cc3[nH]2)nc1` [Compound 142, 6-Bromo-2-((5-chloropyrimidin-2-yl)ethynyl)-1H-indole], for which the pIC50 is 7.00 to 7.30. `COc1ccc(/C=C/c2cc3ccc(Br)cc3[nH]2)cn1` [Compound 111, (E)-6-Bromo-2-(2-(6-methoxypyridin-3-yl)vinyl)-1H-indole]: the pIC50 is less than 6.00. For `Brc1ccc2cc(/C=C/c3ccc(-n4ccnc4)cc3)[nH]c2c1` [Compound 104, (E)-2-(4-(1H-Imidazol-1-yl)styryl)-6-bromo-1H-indole], the negative-log IC50 (pIC50) is less than 6.00.

`COC(=O)c1c(C#Cc2ncc(Cl)cn2)[nH]c2cc(Br)ccc12` [Compound 143, Methyl 6-bromo-2-((5-chloropyrimidin-2-yl)ethynyl)-1H-indole-3-carboxylate] showed a pIC50 of more than 7.30. Compound `CC(=O)c1c(/C=C/c2ccc(Cl)cc2)[nH]c2cc(Br)ccc12` [Compound 122, (E)-1-(6-Bromo-2-(4-chlorostyryl)-1H-indol-3-yl)ethanone] gave a pIC50 of 6.00 to 7.00.

Consider `COc1ccc(C#Cc2cc3ccc(Br)cc3[nH]2)cn1` [Compound 144, 6-Bromo-2-((6-methoxypyridin-3-yl)ethynyl)-1H-indole], for which the pIC50 was less than 6.00. In turn, `Cc1csc(/C=C/c2cc3ccc(Br)cc3[nH]2)n1` [Compound 113, (E)-2-(2-(6-Bromo-1H-indol-2-yl)vinyl)-4-methylthiazole] gave a pIC50 of less than 6.00. Turning to `Cc1nc(/C=C/c2cc3ccc(Br)cc3[nH]2)co1` [Compound 112, (E)-4-(2-(6-Bromo-1H-indol-2-yl)vinyl)-2-methyloxazole], the pIC50 was less than 4.00. The same measure, in the same setting: in the case of `COC(=O)c1c(C#Cc2cc3cc(Cl)ccc3[nH]2)[nH]c2cc(Br)ccc12` [Compound 145, Methyl 6-bromo-2-((5-chloro-1H-indol-2-yl)ethynyl)-1H-indole-3-carboxylate] it was less than 6.00; in that of `[N-]=[N+]=Nc1ccc(-c2cc3ccc(Br)cc3[nH]2)cc1` [Compound 93, 2-(4-azidophenyl)-6-bromo-1H-indole], 7.39.

Consider `[N-]=[N+]=Nc1ccc2cc(-c3cc4ccc(Br)cc4[nH]3)[nH]c2c1` [Compound 88, 6-azido-6′-bromo-1H,1′H-2,2′-biindole], for which the pIC50 was 7.65.

On to `O=C(c1c(/C=C/c2cn3ccccc3n2)[nH]c2cc(Br)ccc12)C(F)(F)F` [Compound 176, (E)-1-(6-Bromo-2-(2-(imidazo[1,2-a]pyridin-2-yl)vinyl)-1H-indol-3-yl)-2,2,2-trifluoroethanone], for which the pIC50 is less than 6.00. Same read-out and setting: the figure for `FC(F)(F)C1(c2ccc(-c3[nH]c4cc(Br)ccc4c3Cl)cc2)N=N1` [Compound 92, 6-bromo-3-chloro-2-(4-(3-(trifluoromethyl)-3H-diazirin-3-yl)phenyl)-1H-indole] is 6.96; for `Cc1ccc(/C=C/c2cc3ccc(Br)cc3[nH]2)o1` [Compound 114, (E)-6-Bromo-2-(2-(5-methylfuran-2-yl)vinyl)-1H-indole] it is less than 6.00; for `COc1ccc(/C=C/c2[nH]c3cc(Br)ccc3c2C(=O)C(F)(F)F)nc1` [Compound 172, (E)-1-(6-Bromo-2-(2-(5-methoxypyridin-2-yl)vinyl)-1H-indol-3-yl)-2,2,2-trifluoroethanone] it is less than 6.00. On to `Cn1c(-c2cc3ccccc3s2)nc2ccc(Br)cc21` [Compound 155, 2-(Benzo[b]thiophen-2-yl)-6-bromo-1-methyl-1H-benzo[d]imidazole], for which the pIC50 is 6.00 to 7.00. Compound `COc1ccc(/C=C/c2[nH]c3cc(Br)ccc3c2C(=O)O)nc1` [Compound 151, (E)-6-Bromo-2-(2-(5-methoxypyridin-2-yl)vinyl)-1H-indole-3-carboxylic acid] gave a pIC50 of less than 6.00. Compound `Cn1c(-c2cc3ccccc3s2)nc2cc(Br)ccc21` [Compound 156, 2-(Benzo[b]thiophen-2-yl)-5-bromo-1-methyl-1H-benzo[d]imidazole] showed a pIC50 of less than 6.00. Consider `Brc1ccc(CCc2cc3ccc(Br)cc3[nH]2)cc1` [Compound 37b, 6-bromo-2-(4-bromophenethyl)-1H-indole], for which the pIC50 was 6.73. `Cc1ccc(/C=C/c2cc3ccc(Br)cc3[nH]2)s1` [Compound 116, (E)-6-Bromo-2-(2-(5-methylthiophen-2-yl)vinyl)-1H-indole] showed a pIC50 of less than 6.00. The compound `Cc1csc(/C=C/c2cc3ccc(Br)cc3[nH]2)c1` [Compound 117, (E)-6-Bromo-2-(2-(4-methylthiophen-2-yl)vinyl)-1H-indole] gave a pIC50 of less than 6.00.

As to `Cc1ncc(/C=C/c2cc3ccc(Br)cc3[nH]2)s1` [Compound 115, (E)-5-(2-(6-Bromo-1H-indol-2-yl)vinyl)-2-methylthiazole], the pIC50 was less than 6.00. Consider `COC(=O)c1c(-c2cc3ccc(Br)cc3[nH]2)[nH]c2ccccc12` [Compound 90, methyl 6′-bromo-1H,1′H-[2,2′-biindole]-3-carboxylate], for which the pIC50 is 8.62.

The compound `FC(F)(F)C1(c2ccc(-c3cc4ccc(Br)cc4[nH]3)cc2)N=N1` [Compound 94, 6-bromo-2-(4-(3-(trifluoromethyl)-3H-diazirin-3-yl)phenyl)-1H-indole] had a pIC50 of 7.11. Still for that read-out and setting: the figure for `Brc1ccc2cc(C#Cc3ccccn3)[nH]c2c1` [Compound 140, 6-Bromo-2-(pyridin-2-ylethynyl)-1H-indole] is less than 6.00.

Still in this assay, the particulars now being: read-out: % inhibition (IC50).
For `Brc1ccc2cc(CCc3ccccc3)[nH]c2c1` [Compound 37a, 6-bromo-2-phenethyl-1H-indole], the inhibition at 4 µM is 56%.

Still in this assay, the particulars now being: read-out: % inhibition at the highest concentration tested (IC50).
Take `FC(F)(F)C1(c2ccc(-c3cc4ccc(Br)cc4[nH]3)cc2)NN1` [Compound 89, 6-Bromo-2-(4-(3-(trifluoromethyl)diaziridin-3-yl)phenyl)-1H-indole]: the inhibition at 10 µM is 84%.

As for `Brc1ccc2[nH]c(-c3cc4ccccc4[nH]3)cc2c1` [Compound 10h, 5-Bromo-1H,1′H-2,2′-biindole], the inhibition at 10 µM worked out at 36%. As for `Cn1c(C#Cc2cc3ccc(Br)cc3n2C)cc2ccc(Br)cc21` [Compound 26b, 1,2-bis(6-bromo-1-methyl-1H-indol-2-yl)ethyne], the inhibition at 10 µM stood at 27%.
